From US8026217B2, “Compositions and methods for treating neural anoxia and spreading depression” (Florida Atlantic University, priority 2007, dated 2011)
Entries after “also recorded” stand apart in the source; their conditions may differ. Read-outs that look alike come from different tables or passages of the source.

Columns and labels:
[1] = test system: respiratory brain slices; assay: Neural function in respiratory brain slices during sodium azide-induced anoxia; parameters: species or system mouse or rat; details: expected
Excerpt: Neural function in mammals (mouse or rat) is examined pharmacologically during acute anoxia in respiratory brain slices via sodium azide, which chemically induces anoxia. Following administration of the sodium azide, the time until neural failure is monitored. This is done in the presence of a PDE5 inhibitor, 8-bromo-GMP, KT5823, and Cantharidin.

[2] = test system: zebrafish; assay: Zebrafish behaviour during acute anoxia; format: in vivo; details: whole zebrafish in anoxic water post-treatment; expected
Excerpt: Vertebrate (zebrafish) behaviour is examined during acute anoxia. Whole zebrafish are exposed to anoxic water post-treatment with a PDE5 inhibitor, 8-bromo-GMP, KT5823, and Cantharidin. The time until the animal knocks out during anoxia is monitored.

[3] = test system: PKG; assay: PKG enzyme activity assay on heads of treated flies; format: biochemical, Drosophila melanogaster; details: heads of sitter flies treated in vivo with volatilized agent; versus sham control
Description: PKG enzyme activity assays: PKG enzyme activity assays were conducted according to the procedure outlined in Kaun et al. (J Exp Biol. 210(Pt 20):3547-3558, 2007). Adult Drosophila were decapitated and the heads were homogenized in 25 mM 1-1 Tris (pH 7.4), 1 mM 1-1 EDTA, 2 mM 1-1 EGTA, 5 mM 1-1 β-mercaptoethanol, 0.05% Triton X-100 and protease inhibitor solution (Roche Diagnostics). Following microcentrifugation for 5 min, the supernatant was removed and those supernatants containing equal amounts of total protein were examined for PKG enzyme activity. The reaction mixture contained the following substances: 40 mM 1-1 Tris-HCl (pH 7.4), 20 mM 1-1 magnesium acetate, 0.2 mM 1-1 [γ^32P]ATP (500-1000 c.p.m. pmol−1), […] heptapeptide (RKRSRAE), (SEQ ID NO:6), (3 mM 1-1 cGMP and a highly specific inhibitor of cAMP-dependent protein kinase. The next step of the procedure involved incubating the reaction mixtures at a temperature of 30° C. for 10 min, followed by ending the reaction by spotting 70 μl of the reaction mixture onto Whatman P-81 filters. To remove any unreacted [γ^32P]ATP, these spots were then soaked with 75 mM 1-1 H3PO4 for 5 min and washed three times with 75 mM 1-1 H3PO4. Before quantifying enzyme activity, filters were rinsed with 100% ethanol and air dried. To calculate PKG enzyme activity, counts were taken in a Wallac 1409 Liquid Scintillation Counter using universal scintillation cocktail (ICN). PKG activity was presented in the figures as pmol of ^32P incorporated into the substrate min−1 mg−1 protein.

[4] = test system: mammals (mouse or rat); assay: Spreading depression in mammals; format: in vivo; details: expected
Excerpt: The pharmacological effects of a PDE5 inhibitor, 8-bromo-GMP, KT5823, and Cantharidin during spreading depression are examined in mammals (mouse or rat).

[5] = test system: adult Drosophila melanogaster; format: in vivo; details: sitter adults, volatilized from DMSO 1 hr, 1 mM KT5823, 1 mM Cantharidin, 200 mM DCA, 10 mM 8-Bromo cGMP, 10 mM T-0156, versus DMSO sham
Description: FIG. 9 is a diagram illustrating in vivo treatment of adult Drosophila melanogaster with pharmacological agents. […] Adult sitters were exposed to various drugs known to target components of the PKG pathway (FIG. 8A). These drugs included: 10 mM T0156, a cGMP-specific phosphodiesterase-5 inhibitor, 10 mM 8-Bromo-cGMP, a PKG activator, 1 mM KT5823, a PKG inhibitor, 1 mM Cantharidin, a PP2A inhibitor, and 200 mM DCA, a K^+ channel activator. All drugs were solubilized in dimethyl sulfoxide (DMSO), where flies treated with only DMSO were used as sham controls. […] 10 μL of drug solution was applied to a crushed Kim wipe at the bottom of each 10 mL test vial. An additional Kim wipe was crushed over top of this to prevent direct contact between the fly and solution. 10 flies were then placed in the vial which was capped with a semi-permeable buzz-stopper, covered with a cut-out finger of a large latex glove to prevent chemical vapours from escaping, and incubated in the dark. The flies were subjected to the drug for 1 hr prior to each behavioural assay. In the drug combination experiments, 20 uL of DMSO was used as a control sham, and combinations of two pharmacological treatments were added as two separate 10 uL aliquots.
Whether or not fly PKG levels could be manipulated in vivo using a technique that uses volatilization of pharmacological agents was next examined. The role of these targets in vivo using sitter flies was examined by depositing pharmacological agents dissolved in DMSO on a cellulose tissue, and allowing them to volatize over minutes in an air tight vial at room temperature (FIG. 9). Adults were exposed to the volatilized compound for one hour in the dark and then assayed for locomotory resilience to acute hypoxia. Control sham animals (FIG. 7A) were treated with only DMSO. Compounds were chosen to target different components of the cGMP pathway (FIG. 8A) in tracheal smooth muscle and Chinese hamster ovary cells, where cGMP activates PKG, thereby activating PP2A, which then de-phosphorylates K^+ channels. The hypothesis that inhibition of this pathway would result in an increase in whole cell K^+ channel conductance, thereby leading to increased resilience to anoxic coma onset, was tested.
Locomotory Tolerance Assay during Acute Hypoxia: Ten flies (separated into males or females) from each of the three strains (rover [for^R], sitter [for^S] and for^s2) were selected and placed in three separate vials with food at least 24 hours before each experiment. At the time of the experiment, flies were emptied into 10 mL empty test vials covered with permeable sponge caps of equivalent thickness, allowing for consistent gas exchange. These test vials were then placed into a 600 mL beaker which was covered with parafilm, creating a closed chamber with an escape hole (1 cm diameter). The parafilm top was punctured with a needle connected to a gas tank (by a plastic hose), through which the inert gas argon was expelled. […] The needle tip was fastened to the bottom of the beaker and inserted into a larger sponge of similar texture to the vial sponge caps to ensure that gas expelled from the needle was dispersed equally throughout the beaker. Also, to ensure that all test vial positions in the beaker received equal gas flow, test vial positions were alternated every trial to reduce variability.
The experiment required exposing the test vials with 10 flies in the container to pure argon gas expelled from the tank at a flow rate of 600 cc/min+/−5%. Time of behavioural failure was recorded by observing the fly undergo a seizure, which was quickly followed by an anoxic coma.

[6] = test system: metathoracic ganglion of the locust; assay: SD-like events evoked by high-potassium (KCl 150 mM) injection into the locust metathoracic ganglion; format: in vivo, Locusta migratoria; details: for time to recover ventilatory central pattern generator (vCPG) function following SD: Example 5, NO synthase inhibitor and NO donors, FIG. 4G
Excerpt: CSD is increasingly accepted as a primary causative agent for migraine, particularly migraine with aura. The cellular mechanisms underlying stroke, seizures and migraine are not exclusive to mammals. Using the locust (Locusta migratoria), a proven model for examining the effects of heat stress on CNS activity, a rapid rise in extracellular potassium ([K^+]o) during anoxia/hypoxia, extreme heat, and ouabain exposure was monitored. This phenomenon has all the characteristics of SD in the neocortex of mammals. Since the physiological mechanisms observed in locust SD-like events are similar to that of mammals, findings in this insect model are predictably transferable to mammals, including humans. In the locust, model SD-like events were triggered in the CNS by injecting small volumes of saline containing high levels of potassium ions (KCl at 150 mM instead of the nominal resting level of 10 mM) into the metathoracic ganglion. Potassium-sensitive microelectrodes were used to measure SD generated by KCl injections, while manipulating the PKG pathway.
This tissue response is characterised by a transient surge and subsequent clearance of potassium ions in the extracellular space ([K^+]o). During SD-like events ventilatory motor activity ceases. This was monitored using an electromyographic electrode positioned on an abdominal muscle used for ventilation (Ventilatory EMG). Upon restoration of the potassium ion gradient the neural activity recovered and preparations began to ventilate again.
The first injection was used as a control. Following the first injection, animals were allowed 10 minutes of perfusion with standard locust saline before treatment with bath applications of selected drugs (i.e. KT5823, T-0156). All drugs were dissolved in a minimum amount of DMSO before further dilution with standard locust saline to a concentration of 10^−5M and were superfused over the metathoracic ganglion for 10 minutes before the second injection. A total of 20 minutes elapsed between the first and second injection in all experiments. As shown in Figure (Bi), duration at half the maximum amplitude was used to characterize the severity of SD-like events. A significant increase was observed following the second injection when compared to the first in control animals. […] Heat shock (HS) preconditioning reduced SD duration evoked by the first and second injections. […] Numbers in the histogram bars indicate number of preparations tested. Asterisks indicate statistically significant differences between the first and second injection ([…]).
Motor pattern activity was not measured for T-0156/Cantharidin treatments. […] Figure (Cii) illustrates the drug effects by showing the percentage difference in rhythm recovery time (second injection relative to first injection).
Single SD events were evoked by injection of saline (50 nL) containing elevated potassium chloride (150 mM vs. 10 mM) directly into the metathoracic ganglion. […] During SD, ventilatory motor activity monitored electromyographically (EMG) ceased and recovered upon restoration of the potassium ion gradient. The duration of the [K^+]o wave at half its maximal amplitude and the time from failure of motor patterning to the recovery of a ventilatory rhythm were measured. […] Numbers in brackets represent sample size.
As in Example 3, SD events were evoked by injection of saline (50 nL) containing elevated potassium chloride (150 mM vs. 10 mM) directly into the metathoracic ganglion of locust preparations.

[7] = test system: NO-producing cells; assay: DAF2-DA staining of NO-producing cells in locust metathoracic ganglion; format: cell-based, Locusta migratoria; details: 100 μM; 3 minutes at 35° C.
Description: The pattern of cell staining was similar to that of NOS staining in Schistocerca gregaria and L. migratoria (Müller and Bicker, The Journal of Neuroscience 14:7521-7528, 1994; Bullerjahn and Pflüger, Zoology 106:3-17, 2003). The scale in the Figure is 500 μm. FIGS. 4B and 4C show fluorescing cell bodies at room temperature (20° C.) (4B) and immediately following exposure to heat (35° C.) (4C) (scale for both Figures is 50 μm). The change in fluorescence following exposure to heat was quantified as shown in FIG. 4D (3 minutes at 35° C., shown by bar above x-axis). The difference between cell body fluorescence and background more than doubled immediately following exposure to heat (t=5 minutes). […] Fluorescence was measured from the brightest 3 cells from each ganglion. [Sample sizes: Control, n=7; LNAME, n=4; and No heat, n=3. Asterisks indicate significant differences of control from LNAME and No heat groups (Tukey, p<0.05).]

| Compound | head PKG enzyme activity [3] | time to anoxic coma onset during acute hypoxia, single agents [5] | time to recover ventilatory central pattern generator (vCPG) function following SD [6] | other results |
| --- | --- | --- | --- | --- |
| CC12C(=O)OC(=O)C1(C)C1CCC2O1 (centres unmarked) [Cantharidin, Hexahydro-3a,7a-dimethyl-4,7-epoxyisobenzofuran-1,3-dione] | PKG activity levels did not differ; also recorded: showed no significant effects on PKG enzyme activity levels compared to sham controls | demonstrated significant resilience to anoxic coma |  | time until neural failure [1]: neuroprotection and prolonged neural function when subject to anoxia; time until the animal knocks out during anoxia [2]: neuroprotection and prolonged behaviour when subject to anoxia; SD-like events and neural function [4]: neuroprotection and reduces SD-like events thereby prolonging neural function |
| COC(=O)[C@@H](N)CCCNC(=N)N[N+](=O)[O-] [LNAME, N(G)-nitro-L-arginine methyl ester] |  |  | dramatically reduced the length of time taken to recover ventilatory central pattern generator (vCPG) function following SD | DAF2-DA cell body fluorescence in response to heat stress [7]: prevented the increased fluorescence in response to heat stress |
| CC(=O)N[C@@H](C(=O)O)C(C)(C)SN=O [SNAP, S-nitroso-N-acetyl-D-penicillamine] |  |  | did not exacerbate recovery times beyond that of control preparation times |  |
| N[C@@H](CCC(=O)N[C@@H](CSN=O)C(=O)NCC(=O)O)C(=O)O [SNOG, S-nitrosoglutathione] |  |  | did not exacerbate recovery times beyond that of control preparation times |  |
| COC(=O)c1c(-c2cc(OC)c(OC)c(OC)c2)c2ccnc(OCc3ncccn3)c2c(=O)n1Cc1ccnc(C)c1 [T-0156] | significant increase in PKG activity levels compared with sitter control shams; also recorded: demonstrated significant effects compared to that of the sham control | exhibited significant sensitivity to anoxic coma |  | length of time to recover ventilatory motor pattern activity after SD ([6]; Example 1, bath application 10^-5 M for 10 minutes before second KCl injection): took significantly longer to recover motor pattern activity after the second injection; recovery time of ventilatory rhythm, second event versus first ([6]; Example 3, drug applied for 10 minutes prior to second injection, FIG. 3D): The recovery time was increased; time to anoxic coma onset during acute hypoxia, single agents ([5]; listed as T0156): increased sensitivity to acute hypoxia |
